Results as given in patent US20250082766A1, “TREATMENT OF BRAIN TUMORS BY TARGETING THE CHOLESTEROL PATHWAY IN ASTROCYES” (Ramot at Tel-Aviv University Ltd., priority 2022, published 2025).
“Also recorded” adds a separate entry of the source.

Legend:
[1] = test system: GL261 and CT-2A glioma cells; assay: Cell viability assay (Annexin V/DAPI FACS) of glioma cells; format: cell-based, mouse; design: glioma viability: dose or concentration left out as unconfirmed; settings: lovastatin, 3 day treatment; CT-2A and GL261; FIGS. 11G-H
Procedure: FIGS. 5A-N illustrate that astrocyte-derived cholesterol supports glioma survival. (FIGS. 5A-D) Real-time changes in the ECAR (FIGS. 5A-B) and oxygen consumption rate (OCR) (FIGS. 5C-D) of GL261 glioma cells, cultured in media supplemented with full serum (FCS, fetal calf serum) or lipoprotein-deprived serum (LPDS, Lipoprotein-deficient serum) for 18 hours and measured using Seahorse. Oligo, oligomycin; FCCP, carbonyl cyanide4-(trifluoromethoxy) phenylhydrazone; R/A, rotenone plus antimycin A; 2-DG, 2-deoxy-d-glucose. Glycolysis, glycolytic capacity and glycolytic reserve were extracted from the ECAR reading, and basal respiration, adenosine triphosphate (ATP) production, Maximal respiration, and spare respiratory capacity were determined based on OCR. Data are representative of two independent experiments (n=6 technical replicates per experiment). (FIG. 5E) Percentage of cell death of GL261 and CT-2A glioma cells, or primary astrocytes, cultured in FCS or LPDS for 5 days; as determined by Annexin-V assay (n=5 independent experiments). […] Representative flow cytometry plots of Annexin-V/DAPI staining from each group are shown in FIG. 5F and quantification analyses of cholesterol rescue are in FIG. 5G (n=5 biologically independent experiments). (FIGS. 5H-K) Representative images and quantification of LDLR expression (Immunoblot, FIGS. 5H-I) and cell death via FACS analysis of Annexin V/DAPI staining (FIGS. 5J-K) in response to endogenous LXR agonists (24-OHC) or Mock (DMSO) treatment in GL261 and CT-2A cells (n=3 biologically independent experiments). […] (FIGS. 5L-M) Representative flow cytometry plots of murine GL261 and CT-2A glioma cells co-cultured for 5 days with primary mouse astrocytes are shown in FIG. 5L and quantification analyses in FIG. 5M (n=4 biologically independent experiments). (FIG. 5N) quantification analyses of human U87EGFRvIII (U87) glioma cells co-cultured with human primary astrocytes for 5 days (n=3 biologically independent experiments). […]

[2] = test system: primary astrocytes; assay: Cell viability assay (Annexin V/DAPI FACS) of primary astrocytes; format: cell-based, mouse; design: dose or concentration left out as unconfirmed; settings: lovastatin, 3 day treatment; FIGS. 11G-H
Text: FIGS. 11A-K illustrate that astrocyte-derived cholesterol supports glioma survival. (FIG. 11A) Representative immunofluorescence images of cholesterol accumulation (Filipin III, white) in the GBM tumor (tdTomato^+ GL261 cells, red), Tumor margins are indicated in yellow (n=3 biologically independent samples). Scale bars, 400 μm (right), 150 μm (left). (FIGS. 11B-E) Real-time changes in the ECAR (FIGS. 11B-C) and OCR (FIGS. 11D-E) of CT-2A glioma cells, cultured in media supplemented with full serum (FCS) or lipoprotein-deprived serum (LPDS) for 18 hours and measured using Seahorse. […] Glycolysis, glycolytic capacity and glycolytic reserve are extracted from ECAR reading, and basal respiration, ATP production, Maximal respiration, and spare respiratory capacity were determined based on OCR. […] (FIGS. 11I-J) Representative immunoblot and quantification analyses comparing LDLR protein levels in with CT-2A and GL261 cells cluttered for 2 days in FCS or LPDS supplemented media. […] P values were determined by two-sided Student's t-tests (FIGS. 11B-E and 11I-K) or by one-way ANOVA, followed by Fisher's LSD post-hoc analysis (FIGS. 11G-H). *P<0.05, **P<0.01, ***P<0.001.
GL261, CT-2A, or astrocytes were seeded at a density of 1.5×10^5 cells per well in a 6-well plate. […] Microglial cell death was determined by LDH Assay (Sigma-Aldrich, #4744934001) according to the manufacturer's instructions. […]

[3] = test system: GL261 glioma (GBM); assay: Primary GBM model: GL261 intracranially implanted mice treated with Probucol; format: in vivo, mouse; settings: for tumor growth (IVIS): Probucol 30 mg/kg daily from day 10 (quarter of HED) vs vehicle, FIG. 16B
Procedure: (FIG. 16A) Illustration of the experimental design for primary and recurrent GBM models. (FIGS. 16B-D) WT mice were intracranially (IC) implanted with GL261 cells. Tumor-bearing mice were treated daily, starting at day 10, with Probucol (30 mg/kg) or vehicle. (FIG. 16B) Tumor growth curve as determined by IVIS, (FIG. 16C) mice weight loss, and (FIG. 16D) Kaplan-Meier curves assess overall survival. p-value by Two-way ANOVA. Data represent Mean±SEM, 8 mice/group. (FIG. 16E) Illustration of the predicted effects of probucol or glyburide in the different models/disease stages.
For intracranial mouse glioma, mice were anesthetized, positioned in a Stereotaxic Alignment System, and injected with 1.5×10^4 GL261 or CT-2A cells in 2 μl of DMEM. Injections were made to the right frontal lobe, approximately 2.5 mm lateral and 0.1 mm caudal from bregma at a depth of 3 mm. In-vivo bioluminescence imaging, following XenoLight D-luciferin Potassium Salt administration (150 mg/kg) i.p. administration, was determined using IVIS Spectrum system (PerkinElmer). Ganciclovir (GCV, Cymevene, Roche #SAP-10051872; 25 mg/kg), Diphtheria-toxin (DT, Sigma-Aldrich, #D0564; 1100 ng/mice), or vehicle control (PBS) were administered daily following tumor establishment (day 10), as previously described (Mayo, L., et al. Nat Med (2014) 20: 1147-1156). CD8^+ T cell depletion was performed using an anti-CD8 monoclonal antibody ([…], Bioxcell) or an isotype control monoclonal antibody (2A3, Bioxcell), as previously described (Takenaka, M. C. et al. Control of tumor-associated macrophages and T cells in glioblastoma via AHR and CD39. Nat Neurosci 22, 729-740 (2019)). GBM-bearing mice were intraperitoneally injected (0.1 mg/mouse) with an anti-CD8 or an isotype control mAbs, 1 day before, and 7 days after, GCV administration. CD8 T-cell depletion was validated by FACS analysis using a Sony SH800 FACS instrument (Sony Biotechnology). Data analysis was performed using FlowJo v10 (TreeStar, USA). The following reagents were used for analysis: anti-CD45 (1:100; 30-F11, Biolegend, #103106), anti-CD3[…] (1:50; 145-2C11, Biolegend #100335), and anti-CD8a (1:100; 53-6.7, Biolegend, #100765).
To investigate this hypothesis, C57Bl/6 mice are implanted with GFP^+ luciferase-expressing glioma cells (GL261 or CT-2A), using two subtype models—primary or recurrent GBM/brain tumor resection (as illustrated in FIG. 16A), and are treated daily with probucol, glyburide, or vehicle control, with or without a potent statin (e.g., simvastatin as shown in FIG. 15A). The dosage of the different drugs is optimized based on FDA guidelines for conversions from human-accepted dosages (Table 5 below).
In the primary GBM model (pGBM)—10 days after tumor implantation, the mice are treated with cholesterol-lowering drugs (FIG. 16A). In the recurrent GBM model (rGBM), 12-14 days after inoculation of the mice with the tumor cells, the visible tumor(s) are surgically removed, based on GFP expression, under a stereoscope. The mice are then allowed to recover for a week and then are treated with cholesterol-lowering drugs (FIG. 16A). Of note, tumor formation or recurrence is monitored by bioluminescence (BLI) signals from the tumor cells on in-vivo imaging system (IVIS) spectrum and quantified with Living Image software. Mice are monitored for tumor growth, peritumoral brain edema formation, and mouse survival until the experimental endpoint (extreme lethargy or body weight reduction of greater than 20%), or are euthanized seven days after treatment with the cholesterol-lowering drugs to assess tumor burden, angiogenesis, BBB stability, and immunomodulatory activity in-situ. Tumor volume is evaluated in-vivo by determining tumor BLI, and by histopathology analysis postmortem. Peritumoral brain edema is evaluated in-vivo using IVISense™ Edema (Superhance™ 680) fluorescent probe. […]

[4] = test system: GL261-Luc2 glioma (GBM); assay: GL261-Luc2 implanted mice treated with probucol, TMZ or both; format: in vivo, mouse; settings: FIGS. 20A-C
Procedure: WT mice were IC implanted with GL261-Luc2 cells. […] (FIG. 20A) Tumor growth curve as determined by IVIS, (FIG. 20B) mice weight loss, and (FIG. 20C) Kaplan-Meier curves assess overall survival. p-value by Two-way ANOVA. Data represent Mean±SEM, 8 mice/group.
For intracranial mouse glioma, mice were anesthetized, positioned in a Stereotaxic Alignment System, and injected with 1.5×10^4 GL261 or CT-2A cells in 2 μl of DMEM. Injections were made to the right frontal lobe, approximately 2.5 mm lateral and 0.1 mm caudal from bregma at a depth of 3 mm. In-vivo bioluminescence imaging, following XenoLight D-luciferin Potassium Salt administration (150 mg/kg) i.p. administration, was determined using IVIS Spectrum system (PerkinElmer). Ganciclovir (GCV, Cymevene, Roche #SAP-10051872; 25 mg/kg), Diphtheria-toxin (DT, Sigma-Aldrich, #D0564; 1100 ng/mice), or vehicle control (PBS) were administered daily following tumor establishment (day 10), as previously described (Mayo, L., et al. Nat Med (2014) 20: 1147-1156). CD8^+ T cell depletion was performed using an anti-CD8 monoclonal antibody (53.6-7, Bioxcell) or an isotype control monoclonal antibody (2A3, Bioxcell), as previously described (Takenaka, M. C. et al. Control of tumor-associated macrophages and T cells in glioblastoma via AHR and CD39. Nat Neurosci 22, 729-740 (2019)). GBM-bearing mice were intraperitoneally injected (0.1 mg/mouse) with an anti-CD8 or an isotype control mAbs, 1 day before, and 7 days after, GCV administration. CD8 T-cell depletion was validated by FACS analysis using a Sony SH800 FACS instrument (Sony Biotechnology). Data analysis was performed using FlowJo v10 (TreeStar, USA). The following reagents were used for analysis: anti-CD45 (1:100; 30-F11, Biolegend, #103106), anti-CD3□ (1:50; 145-2C11, Biolegend #100335), and anti-CD8a (1:100; 53-6.7, Biolegend, #100765).

[5] = molecular target: cholesterol transporter ABCA1 (Homo sapiens, UniProt O95477); settings: cited from earlier work
[6] = summary statement on ABCA1 inhibitors, FIGS. 16A-E

Sequence of cholesterol transporter ABCA1 (O95477 whole entry): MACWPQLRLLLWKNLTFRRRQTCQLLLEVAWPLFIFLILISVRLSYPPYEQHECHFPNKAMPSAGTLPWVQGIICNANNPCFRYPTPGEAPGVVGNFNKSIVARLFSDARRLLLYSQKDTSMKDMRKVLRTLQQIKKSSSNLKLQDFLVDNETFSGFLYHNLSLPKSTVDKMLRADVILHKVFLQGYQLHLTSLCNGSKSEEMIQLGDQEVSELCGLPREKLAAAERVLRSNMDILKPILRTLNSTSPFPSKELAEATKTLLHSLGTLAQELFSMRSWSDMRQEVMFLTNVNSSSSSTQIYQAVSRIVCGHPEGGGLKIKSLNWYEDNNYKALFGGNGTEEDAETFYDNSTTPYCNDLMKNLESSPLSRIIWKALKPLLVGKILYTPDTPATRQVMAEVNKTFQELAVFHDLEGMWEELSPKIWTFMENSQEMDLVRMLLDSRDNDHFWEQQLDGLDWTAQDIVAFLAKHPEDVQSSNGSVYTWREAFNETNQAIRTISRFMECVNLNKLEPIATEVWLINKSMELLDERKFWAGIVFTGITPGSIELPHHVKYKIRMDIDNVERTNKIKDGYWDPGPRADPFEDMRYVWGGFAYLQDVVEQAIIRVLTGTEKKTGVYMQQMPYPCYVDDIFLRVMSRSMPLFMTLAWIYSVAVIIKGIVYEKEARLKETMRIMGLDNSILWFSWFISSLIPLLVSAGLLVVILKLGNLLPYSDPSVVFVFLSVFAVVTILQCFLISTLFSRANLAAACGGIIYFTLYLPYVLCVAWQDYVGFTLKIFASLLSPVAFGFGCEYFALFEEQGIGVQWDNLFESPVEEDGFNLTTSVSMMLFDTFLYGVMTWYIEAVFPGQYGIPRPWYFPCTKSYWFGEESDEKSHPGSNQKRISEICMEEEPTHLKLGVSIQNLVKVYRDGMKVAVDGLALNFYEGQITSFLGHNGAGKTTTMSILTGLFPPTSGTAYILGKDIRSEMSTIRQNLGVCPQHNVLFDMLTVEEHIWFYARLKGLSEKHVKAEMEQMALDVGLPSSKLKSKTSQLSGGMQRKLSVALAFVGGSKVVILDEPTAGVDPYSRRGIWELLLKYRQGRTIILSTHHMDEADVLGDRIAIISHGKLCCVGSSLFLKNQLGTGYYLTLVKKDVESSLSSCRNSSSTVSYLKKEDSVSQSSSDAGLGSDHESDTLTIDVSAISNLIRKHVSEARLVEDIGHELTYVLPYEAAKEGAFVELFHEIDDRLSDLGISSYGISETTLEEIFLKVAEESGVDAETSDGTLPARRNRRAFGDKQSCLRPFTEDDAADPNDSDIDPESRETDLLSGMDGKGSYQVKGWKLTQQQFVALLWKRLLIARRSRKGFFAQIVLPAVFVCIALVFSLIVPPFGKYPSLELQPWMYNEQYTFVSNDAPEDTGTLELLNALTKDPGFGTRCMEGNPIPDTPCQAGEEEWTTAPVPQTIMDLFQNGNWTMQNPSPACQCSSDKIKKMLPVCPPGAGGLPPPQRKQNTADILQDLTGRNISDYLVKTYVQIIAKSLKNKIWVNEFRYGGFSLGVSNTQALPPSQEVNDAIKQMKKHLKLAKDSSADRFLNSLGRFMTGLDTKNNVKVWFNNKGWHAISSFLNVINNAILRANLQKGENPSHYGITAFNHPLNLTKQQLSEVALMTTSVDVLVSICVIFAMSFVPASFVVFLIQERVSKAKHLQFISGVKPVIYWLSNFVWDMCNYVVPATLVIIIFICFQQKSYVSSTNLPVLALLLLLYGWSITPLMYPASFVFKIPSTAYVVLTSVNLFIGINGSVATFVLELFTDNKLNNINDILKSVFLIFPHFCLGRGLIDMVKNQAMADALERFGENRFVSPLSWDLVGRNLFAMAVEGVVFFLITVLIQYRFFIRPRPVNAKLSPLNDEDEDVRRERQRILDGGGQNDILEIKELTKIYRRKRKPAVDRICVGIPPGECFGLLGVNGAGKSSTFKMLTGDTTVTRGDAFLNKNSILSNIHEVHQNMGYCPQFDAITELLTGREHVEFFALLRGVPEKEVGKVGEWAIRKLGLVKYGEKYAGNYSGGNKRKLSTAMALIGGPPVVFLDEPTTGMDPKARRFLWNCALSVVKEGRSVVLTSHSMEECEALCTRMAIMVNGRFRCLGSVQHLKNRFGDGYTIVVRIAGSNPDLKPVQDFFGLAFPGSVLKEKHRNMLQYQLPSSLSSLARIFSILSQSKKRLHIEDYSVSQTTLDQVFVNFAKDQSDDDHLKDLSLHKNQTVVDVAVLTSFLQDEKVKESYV

Row | Compound | glioma viability [1] | cell death of primary astrocytes [2] | tumor growth (IVIS) ([3]; GL261-bearing WT mice) | tumor growth (IVIS) ([3]; GL261-bearing WT mice, listed as probucol) | weight loss associated with tumor burden ([3]; GL261-bearing WT mice, Probucol 30 mg/kg daily from day 10 vs vehicle, FIG. 16C) | survival (Kaplan-Meier) ([3]; GL261-bearing WT mice, Probucol 30 mg/kg daily from day 10 vs vehicle, FIG. 16D) | survival of subjects having GBM in-vivo [3, 6] | tumor size of subjects having GBM in-vivo [3, 6] | weight loss of subjects having GBM in-vivo [3, 6] | therapeutic effect (potency) of TMZ ([4]; probucol 30 mg/kg combined with TMZ 2.5 mg/kg, GL261-Luc2 bearing mice) | GBM pathogenicity ([4]; probucol 30 mg/kg, limited course (two days before, during and two days after TMZ course), from day 10) | ABCA1 inhibitor potency [5]
1 | CC[C@H](C)C(=O)O[C@H]1C[C@@H](C)C=C2C=C[C@H](C)[C@H](CC[C@@H]3C[C@@H](O)CC(=O)O3)[C@H]21 [lovastatin, Lovastatin] | did not affect glioma viability | significant cell death of primary astrocytes | – | – | – | – | – | – | – | – | – | –
2 | CC(C)(Sc1cc(C(C)(C)C)c(O)c(C(C)(C)C)c1)Sc1cc(C(C)(C)C)c(O)c(C(C)(C)C)c1 [Probucol] | – | – | attenuates GBM progression | significantly attenuated | significantly attenuated | improved | prolonging survival | decreasing tumor size | preventing weight loss | enhances the potency of TMZ therapeutic; also recorded: dramatically enhanced the therapeutic effect of TMZ | able to halt GBM pathogenicity | strong
